Results as given in ChEMBL document CHEMBL1201862, “PubChem BioAssay data set” (2004).
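Exposure lasted 48 hours, with cells grown in 96-well plates and compounds tested at five concentrations. The concentration for 50% growth inhibition is given as GI50.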 Calls of active or inactive are those of the source. No stated cut-off is given here; in the data, active = GI50 up to about 1.1 µM and inactive = higher.

Experiments:
Assay in all cases: inhibition of tumour cell growth, NCI panel, 48 h
DMS-114 = tested on: DMS-114
DMS-273 = tested on: DMS-273
KM-20L2 = tested on: KM-20L2
LXFL 529 = tested on: LXFL 529
M19-MEL = tested on: M19-MEL
SNB-78 = tested on: SNB-78
HOP-18 = tested on: HOP-18
RXF 631 = tested on: RXF 631
XF498 = tested on: XF498

Compound	GI50 (DMS-114)	GI50 (DMS-273)	GI50 (KM-20L2)	GI50 (LXFL 529)	GI50 (M19-MEL)	GI50 (SNB-78)	GI50 (HOP-18)	GI50 (RXF 631)	GI50 (XF498)
NC(=O)c1ncn(C2OC(CO)C(O)C2O)c1NC(=S)NC(=O)c1ccccc1 (configuration not stated)	> 100 µM (inactive)	> 100 µM (inactive)	> 100 µM (inactive)	> 100 µM (inactive)	> 100 µM (inactive)	> 100 µM (inactive)	–	–	–
CNC(=O)/C(=C/c1ccc(OC)cc1)c1cc(OC)c(OC)c(OC)c1	2.3 µM (inactive)	0.516 µM (active)	1.28 µM (inactive)	4.43 µM (inactive)	1.74 µM (inactive)	4.94 µM (inactive)	> 71.1 µM (inactive)	7.45 µM (inactive)	4.95 µM (inactive)
O=C1C(Cl)N(c2c(Cl)cccc2Cl)C1c1c[nH]c2ccccc12 (configuration not stated)	–	–	> 100 µM (inactive)	> 100 µM (inactive)	> 100 µM (inactive)	–	–	–	> 100 µM (inactive)
CCCc1onc(CCC(=O)N(Cc2ccccc2)Cc2ccccc2)c1CC	> 100 µM (inactive)	> 100 µM (inactive)	> 100 µM (inactive)	> 100 µM (inactive)	> 100 µM (inactive)	> 100 µM (inactive)	–	> 100 µM (inactive)	> 100 µM (inactive)
Cc1cc(C)nc(NS(=O)(=O)c2ccc(Nc3c4ccccc4nc4c(C(=O)N5CCN(CCOS(C)(=O)=O)CC5)ccc(Cl)c34)cc2)n1	> 100 µM (inactive)	> 100 µM (inactive)	> 100 µM (inactive)	–	> 100 µM (inactive)	> 100 µM (inactive)	–	> 100 µM (inactive)	> 100 µM (inactive)
O=C(O)CCC(=O)N1c2ccccc2CC1c1c[nH]c2ccccc12 (configuration not stated)	> 100 µM (inactive)	> 100 µM (inactive)	> 100 µM (inactive)	> 100 µM (inactive)	> 100 µM (inactive)	> 100 µM (inactive)	> 100 µM (inactive)	–	> 100 µM (inactive)
COc1cc(CCc2ccc(OCCN(C)C)cc2)cc(OC)c1OC	47.8 µM (inactive)	> 100 µM (inactive)	76.9 µM (inactive)	77.6 µM (inactive)	> 100 µM (inactive)	> 100 µM (inactive)	> 100 µM (inactive)	88.7 µM (inactive)	38.5 µM (inactive)
CCCCCCCCCCCC1CCCC(C)N1 (configuration not stated)	56.2 µM (inactive)	65.2 µM (inactive)	29 µM (inactive)	–	56.2 µM (inactive)	73.3 µM (inactive)	87.9 µM (inactive)	–	47.4 µM (inactive)
C[C@@]12CC[C@H]3[C@@H]4CCC(=O)N[C@@]4(C)CC[C@@H]3[C@@]1(C)CC[C@H](OC(=O)Cc1ccc(N(CCCl)CCCl)cc1)C2	15 µM (inactive)	15.2 µM (inactive)	18.2 µM (inactive)	–	17.5 µM (inactive)	19.5 µM (inactive)	18 µM (inactive)	–	–
COC(=O)c1cc(CNCCc2c[nH]c3ccccc23)on1	> 100 µM (inactive)	> 100 µM (inactive)	> 100 µM (inactive)	> 100 µM (inactive)	> 100 µM (inactive)	–	–	> 100 µM (inactive)	23.1 µM (inactive)
CCCCCCCCCCCCCCCCNCCCN(C)CCCN	16.6 µM (inactive)	17.8 µM (inactive)	18.2 µM (inactive)	18.6 µM (inactive)	19.9 µM (inactive)	16.9 µM (inactive)	–	–	–
Cn1c(=O)nc2n(-c3ccc(F)cc3)c3ccccc3nc-2c1=O	12.8 µM (inactive)	17 µM (inactive)	19.8 µM (inactive)	22.8 µM (inactive)	2.89 µM (inactive)	20 µM (inactive)	19.4 µM (inactive)	–	19.3 µM (inactive)
CC1=C(Oc2ccccc2)C(CCC(=O)O)c2c(O)cc(Cl)c(O)c21 (configuration not stated)	> 100 µM (inactive)	> 100 µM (inactive)	> 100 µM (inactive)	–	> 100 µM (inactive)	> 100 µM (inactive)	–	> 100 µM (inactive)	> 100 µM (inactive)
